Measured values published in patent US5728580A, “Methods and culture media for inducing single cell suspension in insect cell lines” (Cornell Research Foundation, Inc., priority 1996, dated 1998).

Tests used:
TN5B1-4 cells [1] = test: Inducing single-cell formation of clumped TN5B1-4 cells in suspension culture; assay type: cell-based, Trichoplusia ni; conditions: for Inducing single-cell formation / dispersing clumped cells (in words): clumped suspension culture; for Inducing single-cell formation / dispersing clumped cells (in words) / Concentration adequate to maintain single-cell suspension: serum-free medium
[2] = tested on: AcMNPV binding to TN5B1-4 cells; test: Binding of [3H]thymidine-labeled AcMNPV budded virus to TN5B1-4 cells; assay type: cell-based; conditions: for Virus Binding: 30 min; for Binding, A. Binding in Presence of Polyanions: 5 × 10^6 cells/ml for 30 min, control is binding in absence of polyanion; for Binding, C. Pretreatment of Cells: cells pretreated 3 h, washed once, control is untreated cells; for Binding, C. Pretreatment of Cells / Binding, B. Pretreatment of Virus: binding 1 h without polymer; for Binding, B. Pretreatment of Virus: virus pretreated 2 h, pelleted, control is untreated virus
[3] = tested on: AcMNPV infection of TN5B1-4 cells; conditions: cited from earlier work
TN5B1-4 cells [4] = conditions: for Toxic above this level: tn5b1-4 cells
Procedure: Three different molecular weights of dextran sulfate, derived from dextran of MW 5000, 20000, 500000, were evaluated.
Compounds were evaluated for their ability to induce single cell suspension in 50-ml spinner flasks at 160 rpm. Control cells were passaged at least 10 times in suspension before they were used in any experiments. […] A qualitative score for reduction in clumping relative to control cells was assigned to cells grown in the presence of test compound at the end of the third passage. The protocol for enzyme treatment was the same, but the seeding density was 1×10^6 cells/ml and cells were evaluated after 24 h.

TN5B1-4 cells [5] = test: Growth kinetics of TN5B1-4 cells in spinner flasks; assay type: cell-based, Trichoplusia ni; set-up: dose or concentration left out as unconfirmed
Procedure: TN5B1-4 suspension cells were grown in 50-ml spinner flasks (Bellco Glass, Vineland, N.J.) with a working volume of 40 ml at 160 rpm. SF21 cells were grown in similar vessels at 130 rpm in Ex-Cell 400 medium. The screw caps of the flasks were replaced with silicone foam closures for better oxygen transfer. Cells were passaged every 3 days.
The growth of TN5B1-4 DS 5000 cells in suspension was scaled-up to a 1.25 L Celligen reactor agitated with a marine impeller at 90 rpm. The cells were subcultured three times in this reactor with no clump formation. The doubling time was 20 h and a maximum density of 6-7×10^6 cells/ml was reached.

[6] = tested on: AcMNPV binding to SF21 cells; test: Binding of AcMNPV virus to SF21 cells; assay type: cell-based
Procedure: (§1) The inhibition of binding was further explored by considering the effect of increasing polyanion concentration on the binding of virus to TN5B1-4 and SF21. Less than 20 μg/ml of both dextran sulfate and heparin were required to attain maximum inhibition. […] Dextran sulfate reduced the binding of the virus to TN5B1-4 but not to SF21. […] The cell growth post-infection was used as a measure of virus infection since infection is known to inhibit cell division. Hereafter, synchronous infection is used to refer to infection with no measurable cell division post-infection.

[7] = tested on: AcMNPV infection of TN5B1-4 cells; test: Viral infection inhibition in TN5B1-4 (cell growth post-infection); assay type: cell-based; conditions: at concentrations required to induce and maintain single-cell suspension; MOI 0.1 to 20
Procedure: as §1
The cells were infected at MOI of 0.1, 0.5, 1, 5, 10, and 20 to determine the lowest MOI for synchoronous infection.

[8] = tested on: AcMNPV infection of SF21 cells; test: Viral infection inhibition in SF21; assay type: cell-based
Procedure: as §1

[9] = 100 μg/ml, control = binding of virus to cells with no additive
[10] = 1000 μg/ml, control = binding of virus to cells with no additive
[11] = 25 μg/ml, control = binding of virus to cells with no additive

Question: Which results are given for DEAE-dextran [DEAE dextran]?
Answer: Inducing single-cell formation / dispersing clumped cells (in words) (TN5B1-4 cells [1]): ineffective; Virus Binding ([2]; 5 μg/ml, control = binding of virus to cells with no additive): 74 ± 9 % of Control

Question: With Heparin as the substance, how does the “Fold higher concentration required to induce single-cell suspension relative to dextran sulfate” value (TN5B1-4 cells [1]) read?
Answer: The value was 20 fold.

Question: And the “Concentration required to attain maximum inhibition of virus binding (threshold value)” value [2]?
Answer: The value was “Less than 20 μg/ml”.

Question: And the “Virus Binding” value [2, 9]?
Answer: The value was 63 ± 3 % of Control.

Question: What about the “Inhibition of viral infection (as known)” value [3] of the same substance?
Answer: Its value is “known to seriously inhibit infection”.

Question: What does the source list for Pluronic F68?
Answer: Inducing single-cell formation / dispersing clumped cells (in words) (TN5B1-4 cells [1]): ineffective; Virus Binding [2, 10]: 98 ± 2 % of Control

Question: With “chondroitin disaccharides [Chondroitin sulfate disaccharides]” as the substance, how does the “Inducing single-cell formation / dispersing clumped cells (in words)” value (TN5B1-4 cells [1]) read?
Answer: The value was “did not disperse clumped cells”.

Question: And the “Virus Binding” value [2, 9]?
Answer: Its value is 99 ± 6 % of Control.

Question: For chondroitin sulfate, which “Virus Binding” value [2, 9] is on record?
Answer: The value was 94 ± 3 % of Control.

Question: Which “Virus Binding” value [2, 9] does the source give for dermatan sulfate here?
Answer: Its value is 65 ± 7 % of Control.

Question: For dextran, which “Inducing single-cell formation / dispersing clumped cells (in words)” value (TN5B1-4 cells [1]) is on record?
Answer: The value was “ineffective”.

Question: What about the “Virus Binding” value [2, 9] of the same substance?
Answer: Its value is 97 ± 2 % of Control.

Question: What about the “Virus Binding” value ([2]; 100 μg/ml, polymer of MW 580 kd, control = no additive) of the same substance?
Answer: Its value is 99 ± 3 % of Control.

Question: For “dextran sulfate [dextran sulfate 500000]”, which “Toxic above this level” value (TN5B1-4 cells [4]) is on record?
Answer: The value was “above 5 μg/ml”.

Question: For dextran sulfate [dextran sulfate II], which “Virus Binding” value [2, 11] is on record?
Answer: The value was 82 ± 4 % of Control.

Question: With dextran sulfate [dextran sulfate I] as the substance, how does the “Inducing single-cell formation in serum-containing media” value (TN5B1-4 cells [1]; serum-containing media, up to 300 μg/ml) read?
Answer: Its value is “complete elimination of clumping was not possible”.

Question: And the “Concentration adequate to maintain single-cell suspension” value (“Concentration adequate” below) (TN5B1-4 cells [1])?
Answer: The value was 25 µg/mL.

Question: And the “Concentration required to attain maximum inhibition of virus binding (threshold value)” value [2]?
Answer: The value was “Less than 20 μg/ml”.

Question: And the “Binding, A. Binding in Presence of Polyanions” value (“Binding, A. Binding in Presence” below) ([2]; 25 μg/ml)?
Answer: The value was 42 ± 2 % of control.

Question: What about the “Virus Binding” value [2, 11] of the same substance?
Answer: The value was 42 ± 2 % of Control.

Question: What about the “Binding, C. Pretreatment of Cells” value ([2]; 25 μg/ml) of the same substance?
Answer: The value was 93 ± 9 % of control.

Question: And the “Binding, B. Pretreatment of Virus” value ([2]; 25 μg/ml)?
Answer: Its value is 103 ± 3 % of control.

Question: And the “Reduction of the attachment rate constant” value ([2]; at concentration required to maintain single-cell suspension)?
Answer: The value was “six-fold”.

Question: And the “Toxic at concentrations greater than” value (TN5B1-4 cells [4])?
Answer: Its value is “greater than 0.1%”.

Question: And the “Effect on doubling time and maximum cell density” value (TN5B1-4 cells [5])?
Answer: Its value is “does not affect”.

Question: And the “Effect on binding of virus to SF21” value [6]?
Answer: Its value is “did not affect binding”.

Question: And the “Inhibition of viral infection” value [7]?
Answer: The value was “not severely inhibited”.

Question: And the “Inhibition of viral infection in SF21” value [8]?
Answer: The value was “inhibited infection”.

Question: For fructose 6-phosphate, which “Inducing single-cell formation / dispersing clumped cells (in words)” value (TN5B1-4 cells [1]) is on record?
Answer: Its value is “ineffective”.

Question: For fucoidan sulfate, which “Virus Binding” value [2, 11] is on record?
Answer: The value was 53 ± 1 % of Control.

Question: What about the “Virus Binding” value [2, 9] of the same substance?
Answer: The value was 53 ± 1 % of Control.

Question: Which “Inducing single-cell formation / dispersing clumped cells (in words)” value (TN5B1-4 cells [1]) does the source give for glucose 6-phosphate here?
Answer: The value was “ineffective”.

Question: For heparin disaccharides, which “Virus Binding” value [2, 9] is on record?
Answer: The value was 103 ± 2 % of Control.

Question: Which results are given for hyaluronate?
Answer: Inducing single-cell formation / dispersing clumped cells (in words) (TN5B1-4 cells [1]): did not induce single-cell formation; Virus Binding [2, 9]: 99 ± 1 % of Control

Question: With pentosan sulfate as the substance, how does the “Concentration adequate” value (TN5B1-4 cells [1]) read?
Answer: Its value is 100 µg/mL.

Question: And the “Virus Binding” value [2, 11]?
Answer: The value was 53 ± 3 % of Control.

Question: What about the “Binding, A. Binding in Presence” value ([2]; 100 μg/ml) of the same substance?
Answer: The value was 55 ± 9 % of control.

Question: And the “Virus Binding” value [2, 9]?
Answer: The value was 55 ± 9 % of Control.

Question: And the “Binding, C. Pretreatment of Cells” value ([2]; 100 μg/ml)?
Answer: The value was 96 ± 7 % of control.

Question: What about the “Binding, B. Pretreatment of Virus” value ([2]; 100 μg/ml) of the same substance?
Answer: The value was 99 ± 4 % of control.

Question: And the “Inhibition of viral infection” value [7]?
Answer: The value was “not severely inhibited”.

Question: Which “Inducing single-cell formation / dispersing clumped cells (in words)” value (TN5B1-4 cells [1]) does the source give for polyphosphate here?
Answer: Its value is “did not induce single-cell formation”.

Question: For polyvinyl sulfate, which “Inducing single-cell formation / dispersing clumped cells (in words)” value (TN5B1-4 cells [1]) is on record?
Answer: The value was “as effective as dextran sulfate”.

Question: And the “Concentration adequate” value (TN5B1-4 cells [1])?
Answer: Its value is 25 µg/mL.

Question: What about the “Virus Binding” value ([2]; 10 μg/ml, control = binding of virus to cells with no additive) of the same substance?
Answer: Its value is 52 ± 4 % of Control.

Question: And the “Binding, A. Binding in Presence” value ([2]; 25 μg/ml)?
Answer: Its value is 52 ± 4 % of control.

Question: What about the “Virus Binding” value [2, 11] of the same substance?
Answer: The value was 52 ± 1 % of Control.

Question: What about the “Binding, C. Pretreatment of Cells” value ([2]; 25 μg/ml) of the same substance?
Answer: Its value is 95 ± 6 % of control.

Question: And the “Binding, B. Pretreatment of Virus” value ([2]; 25 μg/ml)?
Answer: The value was 96 ± 5 % of control.

Question: What about the “Inhibition of viral infection” value [7] of the same substance?
Answer: The value was “inhibited viral infection even at high MOI”.

Question: With protamine sulfate as the substance, how does the “Inducing single-cell formation / dispersing clumped cells (in words)” value (TN5B1-4 cells [1]) read?
Answer: The value was “ineffective”.

Question: And the “Virus Binding” value ([2]; 50 μg/ml, control = binding of virus to cells with no additive)?
Answer: The value was “virus ppt”.

Question: With “sodium carboxymethylcellulose [sodium CMC]” as the substance, how does the “Inducing single-cell formation / dispersing clumped cells (in words)” value (TN5B1-4 cells [1]) read?
Answer: Its value is “did not induce single-cell formation”.

Question: What about the “Virus Binding” value [2, 10] of the same substance?
Answer: Its value is 107 ± 1 % of Control.

Question: For sodium polyphosphoric acid, which “Inducing single-cell formation / dispersing clumped cells (in words)” value (TN5B1-4 cells [1]) is on record?
Answer: Its value is “did not induce single-cell formation”.

Question: And the “Virus Binding” value [2, 9]?
Answer: The value was 98 ± 1 % of Control.

Question: Which “Virus Binding” value [2, 9] does the source give for κ-carrageenan here?
Answer: The value was 73 ± 6 % of Control.

Question: What does the source list for λ-carrageenan?
Answer: Virus Binding [2, 11]: 68 ± 3 % of Control; Toxic above this level (TN5B1-4 cells [4]): > 25 µg/mL
